Assay results: the supplement of paper PMC13380429

What was measured:
Details in all cases: 72 h
U2OS [1] = experiment: cell viability relative to DMSO; higher = less toxic
Calu-3 [2] = experiment: as above
Caco-2 [3] = experiment: as above
Vero E6 [4] = experiment: as above
HepG2 [5] = experiment: as above
U2OS [6] = experiment: drug sensitivity score (DSS) for viability; higher = more toxic; extreme values may be limits of the assay
Calu-3 [7] = experiment: as above
Caco-2 [8] = experiment: as above
Vero E6 [9] = experiment: as above
HepG2 [10] = experiment: as above
U2OS [11] = experiment: relative viability EC50 (midpoint between 100% and the lowest measured viability); higher = less toxic
Calu-3 [12] = experiment: as above
Caco-2 [13] = experiment: as above
Vero E6 [14] = experiment: as above
HepG2 [15] = experiment: as above

Row | Compound | cell viability (U2OS [1]; 1 nM) | cell viability (U2OS [1]; 10 nM) | cell viability (U2OS [1]; 100 nM) | cell viability (U2OS [1]; 1000 nM) | cell viability (U2OS [1]; 10000 nM) | cell viability (Calu-3 [2]; 1 nM) | cell viability (Calu-3 [2]; 10 nM) | cell viability (Calu-3 [2]; 100 nM) | cell viability (Calu-3 [2]; 1000 nM) | cell viability (Calu-3 [2]; 10000 nM) | cell viability (Caco-2 [3]; 1 nM) | cell viability (Caco-2 [3]; 10 nM) | cell viability (Caco-2 [3]; 100 nM) | cell viability (Caco-2 [3]; 1000 nM) | cell viability (Caco-2 [3]; 10000 nM) | cell viability (Vero E6 [4]; 1 nM) | cell viability (Vero E6 [4]; 10 nM) | cell viability (Vero E6 [4]; 100 nM) | cell viability (Vero E6 [4]; 1000 nM) | cell viability (Vero E6 [4]; 10000 nM) | cell viability (HepG2 [5]; 1 nM) | cell viability (HepG2 [5]; 10 nM) | cell viability (HepG2 [5]; 100 nM) | cell viability (HepG2 [5]; 1000 nM) | cell viability (HepG2 [5]; 10000 nM) | drug sensitivity score (U2OS [6]) | drug sensitivity score (Calu-3 [7]) | drug sensitivity score (Caco-2 [8]) | drug sensitivity score (Vero E6 [9]) | drug sensitivity score (HepG2 [10]) | relative viability EC50 (U2OS [11]) | relative viability EC50 (Calu-3 [12]) | relative viability EC50 (Caco-2 [13]) | relative viability EC50 (Vero E6 [14]) | relative viability EC50 (HepG2 [15])
1 | O=C(Nc1cccc(Br)c1)c1cccc(S(=O)(=O)N2CCCCCC2)c1 [AK-7] | 97.7% | 92.8% | 98.5% | 92.8% | 86.3% | 102% | 94% | 106% | 105% | 77% | 90.6% | 94.9% | 93.5% | 92.9% | 75.1% | 98.7% | 102% | 99.4% | 100% | 94.3% | 96.7% | 103% | 99.9% | 104% | 72.9% | 0 | 0.6 | 1.4 | 0 | 0.9 | > 10 µM | > 10 µM | > 10 µM | > 10 µM | –
2 | Nc1nccc(Oc2ccc(NC(=O)c3cn(COP(=O)(O)O)cc(-c4ccc(F)cc4)c3=O)cc2F)c1Cl | 97.9% | 103% | 98.7% | 104% | 106% | – | – | – | – | – | 97.2% | 96.8% | 94% | 94.5% | 90.2% | 106% | 103% | 105% | 97.5% | 102% | 104% | 102% | 108% | 99.8% | 35% | 0 | – | 0 | 0 | 3.6 | > 10 µM | – | > 10 µM | > 10 µM | 3.15 µM
3 | CCCCc1nc(Cl)c(C(=O)O)n1Cc1ccc(-c2ccccc2-c2nn[nH]n2)cc1 [carboxylosartan] | 103% | 102% | 101% | 98.7% | 102% | – | – | – | – | – | 96.6% | 98.8% | 95.5% | 100% | 96.9% | 103% | 109% | 98.3% | 104% | 96.5% | 99.6% | 102% | 94.5% | 113% | 95.7% | 0 | – | 0 | 0 | 0 | > 10 µM | – | > 10 µM | > 10 µM | > 10 µM
4 | CC1=C(C(=O)OC(C)C)C(c2cccc([N+](=O)[O-])c2)C(C(=O)OC2CN(C(c3ccccc3)c3ccccc3)C2)=C(N)N1 (stereo not drawn) [azelnidipine] | 101% | 97.5% | 98.3% | 98.1% | 90.4% | 92.8% | 106% | 101% | 96.8% | 109% | 89% | 94.8% | 100% | 87.1% | 87.6% | 91.4% | 97.5% | 92.1% | 96.2% | 88.1% | – | – | – | – | – | 0 | 0 | 0 | 0 | – | > 10 µM | > 10 µM | > 10 µM | > 10 µM | –
